What was measured:
[1] = system: ZEAMX (Corn, Field); assay: Preemergence herbicidal evaluation; type: in vivo, Zea mays, L.; details: preemergence, rated 4-5 weeks after treatment
[2] = system: ORYSAT (Rice, Tebonnet); assay: Flooded paddy, post-transplant rice tolerance; type: in vivo, Oryza sativa, (L.) Tebonnet; details: flooded paddy, post-transplant rice, rated 3-4 weeks after treatment, 0-9 rating scale
How it was run: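 Two ten-day-old Tebonnet rice seedlings transplanted into silt loam, then flooded with water held at 1.5–3 cm above soil; herbicide applied post-transplant. Plants kept in greenhouse and rated visually 0–9 versus untreated control for stand, vigor, malformation, size and chlorosis.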

[3] = system: TRZAWR (Wheat, Winter, cv Riband); assay: Preemergence herbicidal evaluation; type: in vivo, Triticum aestivum; details: preemergence, rated 4-5 weeks after treatment
How it was run: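 Seeds planted in potting soil cups and sprayed preemergence with aqueous acetone compound solution. Greenhouse-grown; rated 4–5 weeks after treatment on a 0-9 visual scale (stand, vigor, malformation, size, chlorosis, appearance) versus control.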

[4] = system: GLXMAW (Soybean, Williams); assay: Preemergence herbicidal evaluation; type: in vivo, Glycine max, (L.) Merr. cv Williams; details: preemergence, rated 4-5 weeks after treatment
[5] = system: ECHCG (Echinochloa crus-galli); assay: Postemergence herbicidal evaluation; type: in vivo, (L.) Beau
How it was run: (§1)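 Seedlings grown about two weeks in flats, sprayed, then kept under standard greenhouse care. Rated visually 4–5 weeks after treatment on a 0–9 scale (stand, vigour, malformation, size, chlorosis, overall appearance) relative to untreated control; repeat tests averaged.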

[6] = system: ECHORC (Echinochloa oryzoides); assay: Flooded paddy, preemergence weed control; type: in vivo, Echinochloa oryzoides (Ard.) Fritsch.; details: rated 3-4 weeks after treatment, 0-9 rating scale
How it was run: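 Preemergence, flooded: propagules planted at 0.5 cm depth in silt loam, water level maintained at 1.5 to 3 cm over soil, containers kept on greenhouse benches. Activity scored 0-9 by eye relative to a control plant.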

[7] = system: ZEAMX (Corn, Field); assay: Postemergence herbicidal evaluation; type: in vivo, Zea mays, L.
How it was run: as §1

[8] = system: GLXMAW (Soybean, Williams); assay: Postemergence herbicidal evaluation; type: in vivo, Glycine max, (L.) Merr. cv Williams
How it was run: as §1

[9] = system: IPOHE (Ipomoea hederacea); assay: Preemergence herbicidal evaluation; type: in vivo, (L.) Jacq.; details: preemergence, rated 4-5 weeks after treatment
[10] = system: ABUTH (Abutilon theophrasti); assay: Preemergence herbicidal evaluation; type: in vivo, Medic.; details: preemergence, rated 4-5 weeks after treatment

Row | Structure (SMILES) | ZEAMX preemergence herbicidal rating ([1]; Rate 0.0620 kg/ha) | ZEAMX preemergence herbicidal rating ([1]; Rate 0.1250 kg/ha) | ZEAMX preemergence herbicidal rating ([1]; Rate 0.2500 kg/ha) | herbicidal rating, ORYSAT (rice tolerance) ([2]; rate 0.0320 kg/ha) | herbicidal rating, ORYSAT (rice tolerance) ([2]; rate 0.1250 kg/ha) | TRZAWR preemergence herbicidal rating ([3]; Rate 0.0620 kg/ha) | TRZAWR preemergence herbicidal rating ([3]; Rate 0.1250 kg/ha) | TRZAWR preemergence herbicidal rating ([3]; Rate 0.2500 kg/ha) | GLXMAW preemergence herbicidal rating ([4]; Rate 0.0620 kg/ha) | GLXMAW preemergence herbicidal rating ([4]; Rate 0.1250 kg/ha) | GLXMAW preemergence herbicidal rating ([4]; Rate 0.2500 kg/ha) | Postemergence herbicidal rating, ECHCG ([5]; rate 0.0320 kg/ha) | Postemergence herbicidal rating, ECHCG ([5]; rate 0.0620 kg/ha) | herbicidal rating, ECHORC ([6]; rate 0.0320 kg/ha) | herbicidal rating, ECHORC ([6]; rate 0.1250 kg/ha) | Postemergence herbicidal rating, ZEAMX ([7]; rate 0.0320 kg/ha) | Postemergence herbicidal rating, ZEAMX ([7]; rate 0.0620 kg/ha) | Postemergence herbicidal rating, GLXMAW ([8]; rate 0.0320 kg/ha) | Postemergence herbicidal rating, GLXMAW ([8]; rate 0.0620 kg/ha) | IPOHE preemergence herbicidal rating ([9]; Rate 0.0620 kg/ha) | also measured
1 | CN(C(=O)c1nsc2ccc(-n3c(=O)cc(C(F)(F)F)n(C)c3=O)cc12)c1ccc(Cl)cc1 [Compound 18, 1,2-benzisothiazole-3-carboxanilide, 4′-chloro-5-[3,6-dihydro-3-methyl-2,6-dioxo-4-(trifluoromethyl)-1(2H)-pyrimidinyl]-N-methyl-] | 7.0 | 8.0 | 8.0 | 1.5 | 5.0 | 0.0 | 4.0 | 8.0 | 0.0 | 4.0 | 5.0 | 0.0 | 0.0 | 6.0 | 9.0 | 5.0 | 5.0 | 6.0 | 8.0 | 3.0 | herbicidal rating, ORYSAT (rice tolerance) ([2]; rate 0.0080 kg/ha): 0.0; Postemergence herbicidal rating, ECHCG ([5]; rate 0.1250 kg/ha): 0.0; Postemergence herbicidal rating, ECHCG ([5]; rate 0.2500 kg/ha): 5.0; herbicidal rating, ECHORC ([6]; rate 0.0080 kg/ha): 0.0; Postemergence herbicidal rating, ZEAMX ([7]; rate 0.1250 kg/ha): 5.5; Postemergence herbicidal rating, ZEAMX ([7]; rate 0.2500 kg/ha): 7.0; Postemergence herbicidal rating, GLXMAW ([8]; rate 0.1250 kg/ha): 8.0; Postemergence herbicidal rating, GLXMAW ([8]; rate 0.2500 kg/ha): 8.5; IPOHE preemergence herbicidal rating ([9]; Rate 0.1250 kg/ha): 9.0; IPOHE preemergence herbicidal rating ([9]; Rate 0.2500 kg/ha): 9.0; ABUTH preemergence herbicidal rating ([10]; Rate 0.0620 kg/ha): 9.0; ABUTH preemergence herbicidal rating ([10]; Rate 0.1250 kg/ha): 9.0; ABUTH preemergence herbicidal rating ([10]; Rate 0.2500 kg/ha): 9.0
2 | Cc1cccnc1-c1nsc2ccc(-n3c(=O)cc(C(F)(F)F)n(C)c3=O)cc12 [Compound 19, 1-methyl-3-[3-(3-methyl-2-pyridyl)-1,2-benzisothiazol-5-yl]-6-(trifluoromethyl)uracil] | 7.0 | 7.0 | 7.7 | 6.5 | 8.0 | 5.5 | 8.0 | 8.5 | 6.3 | 6.7 | 7.7 | 2.0 | 3.0 | 8.0 | 9.0 | 5.3 | 5.3 | 8.3 | 8.0 | 9.0 | herbicidal rating, ORYSAT (rice tolerance) ([2]; rate 0.0080 kg/ha): 2.0; herbicidal rating, ECHORC ([6]; rate 0.0080 kg/ha): 2.0; IPOHE preemergence herbicidal rating ([9]; Rate 0.1250 kg/ha): 8.7; IPOHE preemergence herbicidal rating ([9]; Rate 0.2500 kg/ha): 9.0; ABUTH preemergence herbicidal rating ([10]; Rate 0.0620 kg/ha): 7.7; ABUTH preemergence herbicidal rating ([10]; Rate 0.1250 kg/ha): 9.0; ABUTH preemergence herbicidal rating ([10]; Rate 0.2500 kg/ha): 9.0
3 | Cc1ccc(-c2nsc3ccc(N4C(=O)C5=C(CCCC5)C4=O)cc23)s1 [Compound 20, N-[3-(5-methyl-2-thienyl)-1,2-benzisothiazol-5-yl]-1-cyclohexene-1,2-dicarboximide] | 0.0 | 0.0 | 0.0 | 2.0 | 2.0 | 0.0 | 0.0 | 0.0 | 0.0 | 0.0 | 0.0 | 1.0 | 1.0 | 5.0 | 7.0 | 5.0 | 5.0 | 5.5 | 5.5 | 0.0 | Postemergence herbicidal rating, ECHCG ([5]; rate 0.1250 kg/ha): 1.0; Postemergence herbicidal rating, ZEAMX ([7]; rate 0.1250 kg/ha): 5.5; Postemergence herbicidal rating, GLXMAW ([8]; rate 0.1250 kg/ha): 5.5; IPOHE preemergence herbicidal rating ([9]; Rate 0.1250 kg/ha): 0.0; IPOHE preemergence herbicidal rating ([9]; Rate 0.2500 kg/ha): 0.0; ABUTH preemergence herbicidal rating ([10]; Rate 0.0620 kg/ha): 1.0; ABUTH preemergence herbicidal rating ([10]; Rate 0.1250 kg/ha): 2.0; ABUTH preemergence herbicidal rating ([10]; Rate 0.2500 kg/ha): 4.0
